Each block holds one compound with its values, some of them ahead of it. Activity calls are given as the source filed them.
Experiments:
Keap1/Nrf2 = Keap1/Nrf2 (Homo sapiens, UniProt Q14145); test: disruptors of Keap1 binding to Nrf2 peptide – biochemical, fluorescence polarization, cherry-picked samples, dose response (AID 588683)
INS1 [1] = test: INS-1E mitochondrial potential rescue under cytokines – cell-based, JC-1 fluorescence ratio, dry powder, dose response (AID 488931); format: functional; details: Rattus norvegicus
INS1 [2] = test: beta-cell survival under cytokine stress – INS-1E, ATP luminescence, dry powder, dose response (AID 488844); format: functional, cell-based; details: Rattus norvegicus
[3] = molecular target: T1, Short transient receptor potential channel 4 (Mus musculus, UniProt Q9QUQ5); test: SAR Analysis for the identification of selective inhibits of the transient receptor potential cation channel C4 (TRPC4): Automated Electrophysiology. [Related pubchem assays (depositor defined):AID2256]; format: functional
T1 sequence (Q9QUQ5 whole entry): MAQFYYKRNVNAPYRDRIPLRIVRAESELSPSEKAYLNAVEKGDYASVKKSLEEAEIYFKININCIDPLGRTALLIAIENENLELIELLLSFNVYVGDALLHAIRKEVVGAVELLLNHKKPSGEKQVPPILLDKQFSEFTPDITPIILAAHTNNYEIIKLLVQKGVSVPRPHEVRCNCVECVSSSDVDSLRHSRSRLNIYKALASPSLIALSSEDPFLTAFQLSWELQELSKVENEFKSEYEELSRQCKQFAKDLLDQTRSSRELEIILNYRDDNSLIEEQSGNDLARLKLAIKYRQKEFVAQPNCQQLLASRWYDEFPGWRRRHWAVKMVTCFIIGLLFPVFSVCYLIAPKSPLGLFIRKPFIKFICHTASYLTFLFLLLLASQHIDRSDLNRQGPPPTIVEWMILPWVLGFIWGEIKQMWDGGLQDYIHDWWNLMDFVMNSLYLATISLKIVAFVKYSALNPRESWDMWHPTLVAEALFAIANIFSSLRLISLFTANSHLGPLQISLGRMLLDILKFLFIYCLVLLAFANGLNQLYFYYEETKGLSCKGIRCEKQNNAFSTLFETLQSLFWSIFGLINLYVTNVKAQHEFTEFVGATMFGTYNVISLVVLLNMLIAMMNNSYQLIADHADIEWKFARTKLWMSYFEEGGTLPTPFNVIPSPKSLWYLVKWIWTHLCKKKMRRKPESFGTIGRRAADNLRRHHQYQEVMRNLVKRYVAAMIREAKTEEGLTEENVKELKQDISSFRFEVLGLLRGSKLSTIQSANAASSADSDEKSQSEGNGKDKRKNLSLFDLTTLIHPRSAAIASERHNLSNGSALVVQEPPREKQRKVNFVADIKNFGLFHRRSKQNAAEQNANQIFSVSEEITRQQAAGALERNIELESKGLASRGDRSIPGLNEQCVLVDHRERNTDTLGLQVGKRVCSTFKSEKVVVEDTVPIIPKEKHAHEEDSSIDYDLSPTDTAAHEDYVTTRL

[4] = molecular target: T1, Short transient receptor potential channel 4; test: potency of mouse TRPC4 calcium flux blockers – cell-based, HEK293 TRPC4/mu-opioid, DAMGO stimulus, Fluo-4, dose response (AID 492994); format: functional
[5] = molecular target: Short transient receptor potential channel 6 (Mus musculus, UniProt Q61143); test: mouse TRPC6 channel blockers, concentration series – HEK293 cells, membrane potential dye, IC50, selectivity assay for selective TRPC4 inhibitor project, dose response (AID 492987); format: functional, cell-based
NS3 = NS3 (Hepatitis C virus, UniProt A3EZJ3); test: PubChem AID 2173; set-up: species or system Hepacivirus hominis
Sequence of NS3 (A3EZJ3 whole entry): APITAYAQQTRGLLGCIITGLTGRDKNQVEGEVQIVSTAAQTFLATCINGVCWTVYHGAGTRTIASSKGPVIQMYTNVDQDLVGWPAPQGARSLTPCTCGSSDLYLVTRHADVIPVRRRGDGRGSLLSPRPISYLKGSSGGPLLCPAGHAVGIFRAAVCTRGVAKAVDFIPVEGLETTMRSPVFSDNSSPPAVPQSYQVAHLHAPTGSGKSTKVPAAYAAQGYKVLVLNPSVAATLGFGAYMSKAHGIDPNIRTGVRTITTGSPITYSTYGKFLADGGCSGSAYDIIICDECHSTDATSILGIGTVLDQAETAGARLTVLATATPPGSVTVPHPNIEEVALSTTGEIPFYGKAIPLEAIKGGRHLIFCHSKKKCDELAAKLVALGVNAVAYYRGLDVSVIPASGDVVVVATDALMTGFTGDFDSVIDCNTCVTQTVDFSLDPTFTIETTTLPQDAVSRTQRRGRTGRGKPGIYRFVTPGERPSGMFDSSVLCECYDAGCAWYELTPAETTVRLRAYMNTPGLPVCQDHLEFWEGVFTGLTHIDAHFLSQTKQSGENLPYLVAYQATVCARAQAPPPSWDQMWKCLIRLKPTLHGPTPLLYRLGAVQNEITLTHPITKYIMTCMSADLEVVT

[6] = Late-stage probe development counterscreen for inhibitors of the Hepatitis C Virus non-structural protein 3 helicase (NS3): luminescence-based cell-based dose response assay to determine whether compounds that inhibit replication of HCV RNA replicon are cytotoxic. [Related pubchem assays (depositor defined):AID1800, AID1830, AID1845, AID1943, AID1945, AID2172, AID2173, AID2474, AID2476]; format: functional
SUMO E1/E2 = SUMO E1/E2 (Homo sapiens, UniProt P63279+Q9UBE0+Q9UBT2); test: SAR analysis of SUMOylation using HTRF in an in-Vitro dose response assay. [Related pubchem assays (depositor defined):AID2006, AID2011, AID2018, AID2069, AID2658]; format: functional
[7] = molecular target: T2, Voltage-gated N-type calcium channel alpha-1B subunit/Amyloid beta A4 precursor protein-binding family A member 1 (Homo sapiens, UniProt Q00975+Q02410); test: disruptors of Mint-PDZ/N-type channel peptide interaction – biochemical, HTRF, set 2, SAR follow-up (AID 434980); format: functional
T2 sequence (Q00975 whole entry): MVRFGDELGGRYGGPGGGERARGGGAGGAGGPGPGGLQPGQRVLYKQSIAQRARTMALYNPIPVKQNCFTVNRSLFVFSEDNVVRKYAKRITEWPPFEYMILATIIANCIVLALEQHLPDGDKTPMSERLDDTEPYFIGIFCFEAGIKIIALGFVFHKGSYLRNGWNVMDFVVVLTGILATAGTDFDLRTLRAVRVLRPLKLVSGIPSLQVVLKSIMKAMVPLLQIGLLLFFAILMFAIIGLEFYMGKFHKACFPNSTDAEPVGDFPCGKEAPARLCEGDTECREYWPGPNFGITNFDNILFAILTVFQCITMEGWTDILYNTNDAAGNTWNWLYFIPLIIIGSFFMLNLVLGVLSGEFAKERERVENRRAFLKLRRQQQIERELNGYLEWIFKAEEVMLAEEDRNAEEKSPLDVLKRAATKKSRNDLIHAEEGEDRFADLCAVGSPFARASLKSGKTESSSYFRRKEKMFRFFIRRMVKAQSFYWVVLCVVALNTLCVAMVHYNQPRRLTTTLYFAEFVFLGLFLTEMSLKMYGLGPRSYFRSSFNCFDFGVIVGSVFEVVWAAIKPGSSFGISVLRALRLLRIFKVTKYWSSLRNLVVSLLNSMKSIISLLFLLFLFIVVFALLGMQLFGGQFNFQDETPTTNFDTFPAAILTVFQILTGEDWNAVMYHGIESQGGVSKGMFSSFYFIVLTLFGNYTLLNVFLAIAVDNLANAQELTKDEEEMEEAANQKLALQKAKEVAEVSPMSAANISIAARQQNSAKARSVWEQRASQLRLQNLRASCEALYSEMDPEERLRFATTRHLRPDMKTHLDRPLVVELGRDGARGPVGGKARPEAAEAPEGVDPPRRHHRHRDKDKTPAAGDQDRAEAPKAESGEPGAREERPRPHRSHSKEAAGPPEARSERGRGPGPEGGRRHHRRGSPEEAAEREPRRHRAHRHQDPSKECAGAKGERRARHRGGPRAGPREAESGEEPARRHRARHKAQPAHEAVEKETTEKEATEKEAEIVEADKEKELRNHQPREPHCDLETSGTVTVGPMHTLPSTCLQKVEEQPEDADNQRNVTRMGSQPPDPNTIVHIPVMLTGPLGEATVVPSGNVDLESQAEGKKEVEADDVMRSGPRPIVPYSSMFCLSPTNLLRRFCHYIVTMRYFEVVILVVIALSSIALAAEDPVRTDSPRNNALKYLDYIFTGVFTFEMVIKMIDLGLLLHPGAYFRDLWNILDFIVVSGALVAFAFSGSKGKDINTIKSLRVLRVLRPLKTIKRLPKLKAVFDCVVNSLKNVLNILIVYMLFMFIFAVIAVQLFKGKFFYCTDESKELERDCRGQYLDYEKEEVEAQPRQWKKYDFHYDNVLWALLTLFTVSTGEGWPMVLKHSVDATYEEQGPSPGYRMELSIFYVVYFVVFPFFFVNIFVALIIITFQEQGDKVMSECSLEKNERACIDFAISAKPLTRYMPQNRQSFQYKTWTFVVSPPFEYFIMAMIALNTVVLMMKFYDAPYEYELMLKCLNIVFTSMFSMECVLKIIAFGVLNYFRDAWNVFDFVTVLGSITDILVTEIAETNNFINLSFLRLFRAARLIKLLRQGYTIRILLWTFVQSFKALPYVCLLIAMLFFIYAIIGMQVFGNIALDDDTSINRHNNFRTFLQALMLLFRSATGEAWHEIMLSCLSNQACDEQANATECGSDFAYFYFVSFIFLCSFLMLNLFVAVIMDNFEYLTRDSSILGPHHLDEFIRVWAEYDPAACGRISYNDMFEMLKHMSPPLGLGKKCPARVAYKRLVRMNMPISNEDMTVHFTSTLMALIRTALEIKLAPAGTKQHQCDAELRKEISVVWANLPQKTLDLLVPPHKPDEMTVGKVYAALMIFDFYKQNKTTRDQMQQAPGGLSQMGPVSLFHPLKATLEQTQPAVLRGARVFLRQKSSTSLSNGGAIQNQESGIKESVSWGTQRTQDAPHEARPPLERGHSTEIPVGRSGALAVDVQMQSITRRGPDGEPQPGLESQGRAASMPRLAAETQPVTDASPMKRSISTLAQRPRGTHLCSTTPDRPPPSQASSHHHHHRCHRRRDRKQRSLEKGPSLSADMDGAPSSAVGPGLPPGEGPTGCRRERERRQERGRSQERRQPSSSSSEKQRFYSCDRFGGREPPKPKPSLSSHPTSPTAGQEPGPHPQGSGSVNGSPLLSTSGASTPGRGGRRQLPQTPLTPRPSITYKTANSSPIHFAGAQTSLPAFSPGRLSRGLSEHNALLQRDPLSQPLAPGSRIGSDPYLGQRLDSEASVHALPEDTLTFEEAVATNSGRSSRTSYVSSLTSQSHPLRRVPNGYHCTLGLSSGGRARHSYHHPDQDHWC
T2 sequence (Q02410 whole entry): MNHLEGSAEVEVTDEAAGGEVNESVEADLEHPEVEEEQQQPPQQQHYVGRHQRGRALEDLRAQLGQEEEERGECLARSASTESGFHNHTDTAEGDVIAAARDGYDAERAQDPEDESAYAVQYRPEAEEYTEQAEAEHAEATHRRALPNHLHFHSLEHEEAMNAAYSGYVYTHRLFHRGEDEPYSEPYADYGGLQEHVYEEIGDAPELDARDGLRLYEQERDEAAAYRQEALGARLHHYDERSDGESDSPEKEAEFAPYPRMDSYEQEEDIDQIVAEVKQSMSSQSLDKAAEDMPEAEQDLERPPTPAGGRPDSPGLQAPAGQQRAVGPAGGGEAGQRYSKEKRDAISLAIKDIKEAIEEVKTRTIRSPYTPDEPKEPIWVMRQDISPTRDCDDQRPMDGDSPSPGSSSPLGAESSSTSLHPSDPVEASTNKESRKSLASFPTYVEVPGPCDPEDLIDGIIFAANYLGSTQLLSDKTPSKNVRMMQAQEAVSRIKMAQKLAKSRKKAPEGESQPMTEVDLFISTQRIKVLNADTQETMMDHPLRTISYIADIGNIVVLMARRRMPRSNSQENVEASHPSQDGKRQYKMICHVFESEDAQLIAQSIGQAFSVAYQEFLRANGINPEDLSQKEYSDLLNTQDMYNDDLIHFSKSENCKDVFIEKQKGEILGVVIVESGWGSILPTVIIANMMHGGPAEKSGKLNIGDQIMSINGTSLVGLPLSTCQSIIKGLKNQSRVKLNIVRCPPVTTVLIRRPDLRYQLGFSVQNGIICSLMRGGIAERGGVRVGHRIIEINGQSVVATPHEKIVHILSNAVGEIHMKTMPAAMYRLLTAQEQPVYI

[8] = molecular target: T2, Voltage-gated N-type calcium channel alpha-1B subunit/Amyloid beta A4 precursor protein-binding family A member 1; test: disruptors of Mint-PDZ/N-type channel peptide interaction – biochemical, HTRF, SAR follow-up (AID 2489); format: functional

Sequence of Keap1/Nrf2 (Q16236 whole entry): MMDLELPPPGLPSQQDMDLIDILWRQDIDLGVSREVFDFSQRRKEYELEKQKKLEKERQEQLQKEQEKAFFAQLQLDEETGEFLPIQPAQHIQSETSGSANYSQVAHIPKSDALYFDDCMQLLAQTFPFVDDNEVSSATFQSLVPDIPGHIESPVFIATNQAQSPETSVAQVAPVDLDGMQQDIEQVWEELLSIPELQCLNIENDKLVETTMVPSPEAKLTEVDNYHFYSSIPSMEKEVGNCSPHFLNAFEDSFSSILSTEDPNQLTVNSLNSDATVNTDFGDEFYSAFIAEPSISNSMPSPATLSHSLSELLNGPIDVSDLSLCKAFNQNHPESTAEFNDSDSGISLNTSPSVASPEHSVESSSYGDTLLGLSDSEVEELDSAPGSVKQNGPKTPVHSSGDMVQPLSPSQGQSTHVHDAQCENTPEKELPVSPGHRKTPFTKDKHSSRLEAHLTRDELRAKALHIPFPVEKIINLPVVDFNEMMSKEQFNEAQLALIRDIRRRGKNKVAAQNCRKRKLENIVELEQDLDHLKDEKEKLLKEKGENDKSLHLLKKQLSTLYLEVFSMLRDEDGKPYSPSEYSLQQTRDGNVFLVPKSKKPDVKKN
Sequence of Keap1/Nrf2 (Q14145 whole entry): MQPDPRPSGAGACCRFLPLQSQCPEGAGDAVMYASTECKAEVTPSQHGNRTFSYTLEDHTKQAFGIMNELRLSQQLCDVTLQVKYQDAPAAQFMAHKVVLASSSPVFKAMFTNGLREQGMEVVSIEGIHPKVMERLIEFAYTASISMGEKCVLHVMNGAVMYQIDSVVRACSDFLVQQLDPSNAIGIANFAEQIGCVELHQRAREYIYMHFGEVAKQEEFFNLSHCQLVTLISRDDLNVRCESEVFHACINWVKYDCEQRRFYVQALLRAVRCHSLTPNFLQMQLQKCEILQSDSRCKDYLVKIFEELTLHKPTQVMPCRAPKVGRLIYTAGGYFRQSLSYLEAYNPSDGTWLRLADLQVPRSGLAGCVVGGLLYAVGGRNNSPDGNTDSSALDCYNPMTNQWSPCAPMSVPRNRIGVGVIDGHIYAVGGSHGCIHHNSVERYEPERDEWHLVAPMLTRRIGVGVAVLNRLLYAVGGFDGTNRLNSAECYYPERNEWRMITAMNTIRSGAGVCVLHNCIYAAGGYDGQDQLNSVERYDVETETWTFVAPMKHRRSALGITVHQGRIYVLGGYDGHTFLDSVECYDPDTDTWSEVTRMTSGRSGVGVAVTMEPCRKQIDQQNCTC

- AC50 (Keap1/Nrf2): > 52 µM (inactive)
Compound: COc1cc(OC)c(S(=O)(=O)Nc2ccccc2C(=O)O)cc1S(=O)(=O)Nc1ccccc1C(=O)O

- IC50 (NS3): 5.36 µM (active)
Compound: Cc1ccc(C(=O)C2=C(O)C(=O)N(Cc3ccco3)C2c2cccc(Cl)c2)o1 (stereo unspecified)
- CC50 [6]: > 100 µM (inactive)

- IC50 (SUMO E1/E2): 2.41 µM (active)
- IC50 [7]: 11.5 µM (active)
- IC50 [8]: 19.1 µM (active)
Compound: CN(Cc1ccc(F)cc1)C(=O)COC(=O)c1cc(-c2ccco2)nc2ccccc12

The next lines start with the compound.

Compound: COc1ccc(S(=O)(=O)N(C)C[C@@H]2Oc3c(NC(=O)Nc4cccc5ccccc45)cccc3C(=O)N([C@@H](C)CO)C[C@@H]2C)cc1
- AC50 (INS1 [1]): 48 µM (active)
- AC50 (INS1 [2]): 37.6 µM (active)

Compound: Cc1ccc2nc(N3CCCCC3)cc(C)c2c1
- IC50 [3]: 5.49 µM (active)
- IC50 [4]: 10.2 µM (active)
- IC50 [5]: 8.58 µM (active)

Reference: ChEMBL document CHEMBL1201862, “PubChem BioAssay data set” (2004)
